# Test results from patent US5723449A, “Methods and compositions for inhibiting uridine secretion” (priority 1996, dated 1998).
# Read-outs that look alike come from different tables or passages of the source.
# What was measured:
# bone marrow cell growth = settings: cited from earlier work; for limiting toxicity: in vivo
# [1] = Administration of dilazep to Rhesus monkeys, plasma uridine levels and toxicity; format: in vivo; settings: dilazep 1 to 2 mg/kg of body weight per day
# Method: Uridine secretion can be inhibited by administering compounds of the type noted above by Formula (I) or by administering the uridine competing compounds noted above. Uridine secretion inhibiting compounds of the type denoted by Formula (I) typically are administered at preferred doses in the range of about 1 to 5 mg/kg of body weight 2 to 3 times per day. Uridine competing compounds preferably are administered at doses ranging from 5 to 50 mg/kg of body weight 2 to 3 times per day. […] Moreover, such treatment increases by about 4 to 5-fold, the plasma half-life of uridine. These uridine levels are roughly equivalent to those obtained by administering high doses of uridine (1 to 3 g/m^2 per day), without the toxic side effects associated with uridine administration.
# GABA receptor = settings: cerebellar membranes and brain areas associated with convulsions; cited from earlier work
# hearts [2] = settings: hearts of frogs; cited from earlier work
# heart tissue = heart tissue of rabbits; cited from earlier work
# [3] = Single subcutaneous dose of uridine with and without dilazep, plasma/urine uridine pharmacokinetics; format: in vivo, rhesus monkeys (Macaca mulatta); settings: rhesus monkey, sc
# Method: Single dose of Uridine and effect of Dilazep
# The uridine was administered both with and without dilazep. When dilazep was given it was administered at either 1 or 2 mg/kg of body weight, dissolved in sterile phosphate-buffed saline (pH 7.4). Samples of blood (3 ml) were collected in heparinized tubes at 0, 5, 10, 15 and 30 minutes and 1, 2, 4 and 6 hours after injection. When possible, urine was also collected by cytocentesis at similar time intervals. The plasma and urine samples were frozen at -20° C. until analysis.
# The proteins were removed by centrifugation, and sample temperature was maintained at 5° C. The supernant was removed and an equivalent amount of a 1:1 mixture of ice cold trioctylamine and 1,1,2-trichlorotrifluoroethane (freon) was added. […] Reversed-phased chromatography was performed using a Hypersil ODS 5 μm column (Jones Chromatography, Littleton, Colo.). Urine samples were filtered through a 0.45 μm pore size Acro LC 13 filter (Gelman Sciences, Ann Arbor, Mich.) to remove proteins and 50 μl aliquots were analyzed by HPLC. Isocratic elution was performed at 1 ml/min with 10 mM phosphoric acid and 10 μM heptane sulfonic acid (pH 3.1). Column temperature was maintained at 25° C., and the absorbance was measured at 254 nm. […] After adding 5 ml of Econo-Safe scintillation fluor (Research Products International Corp., Mount Prospect, Ill.), radioactivity was measured by using Beckman Model LS 5000TA liquid scintillation counter (Beckman Instruments, Inc., Fullerton, Calif.) equipped with an automatic quenching correction program. […] The detection limits were 2.0 μM.
# The pharmacokinetic parameters of uridine was estimated by […] model-independent methods using a SIPHAR/Base program. The AUC was determined by the trapeziodal rule with extrapolation to time infinity using the terminal disposition slope (K) generated by a weighted nonlinear least-squares regression of an exponential fit of the data, with the weighted square factor set as the reciprocal of the calculated concentration squared. […] The peak plasma concentration (Cmax) values and time to peak plasma concentration (Tmax) values were observed experimental values. Renal clearance (CLR) of uridine was calculated by dividing the […] by the AUC.
# [4] = system: isolated rat skeletal muscle; settings: low concentrations of uridine (10^-4 M); cited from earlier work
# [5] = cited from earlier work
# [6] = system: hereditary orotic aciduria; settings: human, in vivo; cited from earlier work
# hearts [7] = settings: hearts of dogs; cited from earlier work
# CCl4 damaged rat livers = settings: cited from earlier work
# [8] = cited from earlier work; remark: listed apart in the source
# hearts [9] = settings: hearts of rats; cited from earlier work
# [10] = plasma, uridine parameter, 83.3 mg/kg uridine s.c., no dilazep
compound,measurement,setting,value
"O=c1[nH]cc(F)c(=O)[nH]1 [5-FU, 5-fluorouracil]",limiting toxicity,bone marrow cell growth,myelosuppression
"Cc1cn([C@H]2C[C@H](N=[N+]=[N-])[C@@H](CO)O2)c(=O)[nH]c1=O [AZT, 3'-azido-3'-deoxythymidine]",limiting toxicity,bone marrow cell growth,myelosuppression
"O=c1[nH]c(=O)n([C@H]2C[C@H](O)[C@@H](CO)O2)cc1F [FdUrd, 5-fluoro-2'-deoxyuridine]",limiting toxicity,bone marrow cell growth,myelosuppression
"COc1cc(C(=O)OCCCN2CCCN(CCCOC(=O)c3cc(OC)c(OC)c(OC)c3)CC2)cc(OC)c1OC [dilazep, N,N'-bis[3-(3,4,5-trmethoxybenzoyloxy)propyl] homopiperazine]",toxicity,[1],without apparent toxicity
O=c1ccn([C@@H]2O[C@H](CO)[C@@H](O)[C@H]2O)c(=O)[nH]1 [uridine],protection (and reversal) from myelosuppression of pyrimidine analogues,bone marrow cell growth; in vitro and in vivo,Complete protection (and reversal)
same,effect on the GABA receptor,GABA receptor,may have an agonist effect on the receptor
same,myocardial contractility,hearts [2],increase myocardial contractility
same,"myocardial performance, glucose uptake, glycogen synthesis and breakdown of ATP",heart tissue,"increase myocardial performance, glucose uptake, glycogen synthesis and the breakdown of ATP"
same,Cmax/C0,"[3]; in vivo, 83.3 mg/kg",10.7
same,CL renal,"[3]; in vivo, uridine parameter, 83.3 mg/kg uridine s.c., no dilazep, read-out: ClR (renal clearance of uridine) (converted)",1.12 mL/min/kg
same,AUC,[3]; [10],370 µM·h
same,Cmax,[3]; [10],175 µM
same,Tmax,[3]; [10],30 min
same,glucose uptake and glycogen synthesis,[4],increase glucose uptake and glycogen synthesis
same,concentration in blood plasma,"[5]; endogenous, different species",1 to 5 µM
same,plasma uridine entering the liver by the portal vein degraded in single pass,[5]; hepatic uridine phosphorylase,More than 90%
same,half life in the plasma,[5]; in vivo,approximately 2 minutes
same,management of patients with hereditary orotic aciduria,[6],effective to manage patients with hereditary orotic aciduria
same,myocardial contractility,hearts [7],increase myocardial contractility
same,conjugating and excretory functions,CCl4 damaged rat livers,normalize conjugating and excretory functions
same,urinary excretion of uridine,"[8]; high doses of uridine (1 to 3 gm/m^2), several times per day",15-40 % of the dose
same,toxic side effects,[8]; high doses of uridine,"phlebitis, pyrogenic reactions and diarrhea"
same,myocardial contractility,hearts [9],increase myocardial contractility
